Assay results from US11866450B2, “Modulators of Cystic Fibrosis Transmembrane Conductance regulator, pharmaceutical compositions, methods of treatment, and process for making the modulators” (priority 2018, dated 2024).

Target: CFTR-mediated chloride transport (Homo sapiens, UniProt P13569)
Type: cell-based
Conditions: enteroid cells incubated with test compound 18-24 hours, acute 10 μM forskolin and 300 nM Compound III; for Max. Activity: % of chloride transport with 3 μM Compound A, 3 μM Compound II and 300 nM acute Compound III triple combination control
Procedure, shortened: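 Human intestinal enteroid cells incubated with compound 18–24 h at 37° C., then membrane potential dye (FLIPR) read 15 min after chloride-free stimulation with 10 μM forskolin, 100 μM IBMX and 300 nM Compound III. AUC expressed as % of triple-combination control (3 μM Compound A, 3 μM Compound II, 300 nM Compound III).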

Chain of CFTR-mediated chloride transport (P13569 whole entry, looked up): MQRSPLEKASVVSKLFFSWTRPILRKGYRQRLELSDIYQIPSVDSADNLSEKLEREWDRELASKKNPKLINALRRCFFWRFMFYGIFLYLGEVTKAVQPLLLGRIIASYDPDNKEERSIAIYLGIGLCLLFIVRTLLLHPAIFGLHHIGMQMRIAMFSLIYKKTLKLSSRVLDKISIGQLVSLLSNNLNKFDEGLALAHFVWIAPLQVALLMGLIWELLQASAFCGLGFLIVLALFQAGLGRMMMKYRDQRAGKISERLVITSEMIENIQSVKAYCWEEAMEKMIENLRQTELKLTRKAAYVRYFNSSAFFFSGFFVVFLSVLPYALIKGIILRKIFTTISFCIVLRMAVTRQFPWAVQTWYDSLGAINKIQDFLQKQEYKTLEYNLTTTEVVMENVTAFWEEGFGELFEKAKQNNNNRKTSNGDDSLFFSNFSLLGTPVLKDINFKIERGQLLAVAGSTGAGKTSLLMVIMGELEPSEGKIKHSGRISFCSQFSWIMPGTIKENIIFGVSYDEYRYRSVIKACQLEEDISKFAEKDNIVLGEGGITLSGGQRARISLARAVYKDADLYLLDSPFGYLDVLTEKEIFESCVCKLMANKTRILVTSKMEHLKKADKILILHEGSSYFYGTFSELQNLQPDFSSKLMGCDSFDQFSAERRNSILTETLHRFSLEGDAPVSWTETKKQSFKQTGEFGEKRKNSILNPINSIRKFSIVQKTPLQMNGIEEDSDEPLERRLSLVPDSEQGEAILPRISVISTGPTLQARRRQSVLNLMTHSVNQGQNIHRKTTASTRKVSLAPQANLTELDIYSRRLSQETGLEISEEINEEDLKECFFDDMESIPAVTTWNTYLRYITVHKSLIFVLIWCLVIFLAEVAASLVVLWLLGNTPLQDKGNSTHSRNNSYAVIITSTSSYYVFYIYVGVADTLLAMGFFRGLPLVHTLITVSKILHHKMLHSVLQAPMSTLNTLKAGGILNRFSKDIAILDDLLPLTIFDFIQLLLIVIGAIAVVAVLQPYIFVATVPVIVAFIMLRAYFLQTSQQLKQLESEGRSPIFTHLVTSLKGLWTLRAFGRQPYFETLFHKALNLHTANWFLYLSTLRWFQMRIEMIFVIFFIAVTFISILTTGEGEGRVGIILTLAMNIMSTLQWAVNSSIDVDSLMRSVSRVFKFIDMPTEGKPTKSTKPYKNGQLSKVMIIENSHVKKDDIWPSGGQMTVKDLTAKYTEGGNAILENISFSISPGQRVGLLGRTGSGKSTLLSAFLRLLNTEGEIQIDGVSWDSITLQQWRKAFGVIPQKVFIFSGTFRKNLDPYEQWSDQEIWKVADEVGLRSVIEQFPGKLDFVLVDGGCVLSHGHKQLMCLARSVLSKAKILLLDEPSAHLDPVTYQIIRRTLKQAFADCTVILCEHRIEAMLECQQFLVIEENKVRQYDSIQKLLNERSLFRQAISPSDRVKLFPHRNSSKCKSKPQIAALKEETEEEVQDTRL

Compound	EC50 [nM]	Max. Activity
CC(C)(C)CCCN1CCN(c2ccc3c(n2)N2C[C@@H](CCCNc4cccc(n4)S(=O)(=O)NC3=O)CC2(C)C)C1=O [Compound 193, (14S)-8-[3-(4,4-dimethylpentyl)-2-oxoimidazolidin-1-yl]-12,12-dimethyl-2λ^6-thia-3,9,11,18,23-pentaazatetracyclo[17.3.1.111,14.05,10]tetracosa-1(22),5,7,9,19(23),20-hexaene-2,2,4-trione]	< 1000	+++ (+++ is >60%)
CC1(C)C[C@@H]2CCCNc3cccc(n3)S(=O)(=O)NC(=O)c3ccc(N4CCN(C5CCCCC5)C4=O)nc3N1C2 [Compound 200, (14S)-8-(3-cyclohexyl-2-oxoimidazolidin-1-yl)-12,12-dimethyl-2λ^6-thia-3,9,11,18,23-pentaazatetracyclo[17.3.1.111,14.05,10]tetracosa-1(22),5,7,9,19(23),20-hexaene-2,2,4-trione]	< 1000	+ (+ is <30%)
CC1(C)C[C@@H]2CCCNc3cccc(n3)S(=O)(=O)NC(=O)c3ccc(N4CCN(CCCC5(C(F)(F)F)CC5)C4=O)nc3N1C2 [Compound 205, (14S)-12,12-Dimethyl-8-(2-oxo-3-{3-[1-(trifluoromethyl)cyclopropyl]propyl}imidazolidin-1-yl)-2λ^6-thia-3,9,11,18,23-pentaazatetracyclo[17.3.1.111,14.05,10]tetracosa-1(22),5,7,9,19(23),20-hexaene-2,2,4-trione]	< 1000	+++ (+++ is >60%)
CC1CCC2CN(c3nc(N4CCN(CCC(C)(C)C)C4=O)ccc3C(=O)NS(=O)(=O)c3cccc(n3)N1)C(C)(C)C2 (stereo not shown) [Compound 209, 8-[3-(3,3-Dimethylbutyl)-2-oxoimidazolidin-1-yl]-12,12,17-trimethyl-2λ^6-thia-3,9,11,18,23-pentaazatetracyclo[17.3.1.111,14.05,10]tetracosa-1(22),5,7,9,19(23),20-hexaene-2,2,4-trione]	< 1000	++ (++ is 30-60%)
CC1CCC2CN(c3nc(N4CCN(CCC(C)(C)C)C4=O)ccc3C(=O)NS(=O)(=O)c3cccc(n3)N1)C(C)(C)C2 (stereo not shown) [Compound 210, 8-[3-(3,3-dimethylbutyl)-2-oxoimidazolidin-1-yl]-12,12,17-trimethyl-2λ^6-thia-3,9,11,18,23-pentaazatetracyclo[17.3.1.111,14.05,10]tetracosa-1(22),5,7,9,19(23),20-hexaene-2,2,4-trione]	< 1000	++ (++ is 30-60%)
CC1(C)C[C@@H]2CCCNc3cccc(n3)S(=O)(=O)NC(=O)c3ccc(N4CCN(CCC5(C(F)(F)F)CC5)C4=O)nc3N1C2 [Compound 211, (14S)-12,12-Dimethyl-8-(2-oxo-3-{2-[1-(trifluoromethyl)cyclopropyl]ethyl}imidazolidin-1-yl)-2λ^6-thia-3,9,11,18,23-pentaazatetracyclo[17.3.1.111,14.05,10]tetracosa-1(22),5,7,9,19(23),20-hexaene-2,2,4-trione]	< 1000	++ (++ is 30-60%)
CC1(C)C[C@@H]2CCCNc3cccc(n3)S(=O)(=O)NC(=O)c3ccc(N4CC5CCCCN5C4=O)nc3N1C2 (stereo partly drawn) [Compound 213, (14S)-12,12-dimethyl-8-{3-oxo-octahydroimidazo[1,5-a]pyridin-2-yl}-2λ^6-thia-3,9,11,18,23-pentaazatetracyclo[17.3.1.111,14.05,10]tetracosa-1(23),5(10),6,8,19,21-hexaene-2,2,4-trione]	> 3000	+ (+ is <30%)
CC1(C)C[C@@H]2CCCNc3cccc(n3)S(=O)(=O)NC(=O)c3ccc(N4CCN(CC5CCC(F)(F)CC5)C4=O)nc3N1C2 [Compound 214, (14S)-8-{3-[(4,4-Difluorocyclohexyl)methyl]-2-oxoimidazolidin-1-yl}-12,12-dimethyl-2λ^6-thia-3,9,11,18,23-pentaazatetracyclo[17.3.1.111,14.05,10]tetracosa-1(22),5,7,9,19(23),20-hexaene-2,2,4-trione]	< 1000	++ (++ is 30-60%)
